In patent publication US20230399411A1, “SPECIFIC ANTIBODY-DRUG-CONJUGATES (ADCS) WITH KSP INHIBITORS AND ANTI-CD123-ANTIBODIES” (Bayer Pharma Aktiengesellschaft, priority 2016, published 2023):

Assays:
[1] = Caco-2 flux assay for cell permeability; type: in vitro ADME; conditions: human; for Papp B→A at 2 h: Caco-2, 2 hours
Method: The cell permeability of a substance can be investigated by means of in vitro testing in a flux assay using Caco-2 cells [M. D. Troutman and D. R. Thakker, Pharm. Res. 20 (8), 1210-1224 (2003)]. For this purpose, the cells were cultured for 15-16 days on 24-well filter plates. For the determination of permeation, the respective test substance was applied in a HEPES buffer to the cells either apically (A) or basally (B) and incubated for 2 hours. After 0 hours and after 2 hours, samples were taken from the cis and trans compartments. The samples were separated by HPLC (Agilent 1200, Böblingen, Germany) using reverse phase columns. The HPLC system was coupled via a Turbo Ion Spray Interface to a Triple Quadropol mass spectrometer API 4000 (AB SCIEX Deutschland GmbH, Darmstadt, Germany). The permeability was evaluated on the basis of a Papp value, which was calculated using the formula published by Schwab et al. [D. Schwab et al., J. Med. Chem. 46, 1716-1725 (2003)]. […] Of critical importance for toxophores which are released intracellularly is the permeability from B to A [Papp (B-A)] and the ratio of Papp (B-A) to Papp (A-B) (efflux ratio): the lower this permeability, the slower the active and passive transport processes of the substance through the monolayer of Caco-2 cells.

NCI-H292 cells = assay: MTT assay, cytotoxicity of metabolites; type: cell-based; conditions: Homo sapiens, 96 h incubation
Method: The analysis of the cytotoxic effects of the anti-CD123 ADCs and the corresponding metabolites was carried out with various cell lines:
NCI-H292: human mucoepidermoid lung carcinoma cells, ATCC-CRL-1848, standard medium: RPMI 1640 (Biochrom; #FG1215, stab. glutamine)+10% FCS (Biochrom; #S0415).
The cells were cultivated according to the standard method using the growth media listed under C-1. The test is carried out by detaching the cells with a solution of Accutase in PBS (Biochrom AG #L2143; in case of adherent cell), pelleting, resuspending in culture medium, counting and sowing into a 96-well culture plate with white bottom (Costar #3610) (NCI H292: 2500 cells/well; MOLM-13: 2000 cells/well; THP-1: 8000 cells/well; NB4: 7000 cells/well; KG-1: 5000 cells/well, MV-4-11: 5000 cells/well in a total volume of 100 μl). The cells were then incubated in an incubator at 37° C. and 5% carbon dioxide. After 6 h or 48 h (adherent cells) the medium was replaced. […] After 96 h, the cell proliferation was detected using the MTT assay (ATCC, Manassas, Virginia, USA, catalogue No. 30-1010K). […] The dye formed was detected at 570 nm (Infinite M1000 pro, Tecan). The measured data were used to calculate the IC50 of the growth inhibition using the DRC (dose response curve). […]

Structure (SMILES): CC(C)(C)[C@H](c1cc(-c2cc(F)ccc2F)cn1Cc1ccccc1)N(CCCN)C(=O)CSC[C@H](NC(=O)CCOCCOCCOCCOCCNC(=O)CNC(=O)CC(SC[C@H](N)C(=O)O)C(=O)O)C(=O)O.O=C(O)C(F)(F)F.O=C(O)C(F)(F)F (stereo partly drawn) [Example M20, (1R,4R,27R,33R)-1-Amino-32-(3-aminopropyl)-33-[1-benzyl-4-(2,5-difluorophenyl)-1H-pyrrol-2-yl]-34,34-dimethyl-6,9,25,31-tetraoxo-13,16,19,22-tetraoxa-3,29-dithia-7,10,26,32-tetraazapentatriacontane-1,4,27-tricarboxylic acid/trifluoroacetic acid (1:2)]
- Papp B→A at 2 h [1]: 0.089 ×10⁻⁶ cm/s
- IC50 (NCI-H292 cells): 149 nM

Structure (SMILES): CC(C)(C)[C@H](c1cc(-c2cc(F)ccc2F)cn1Cc1ccccc1)N(CCCN)C(=O)CSC[C@H](NC(=O)CCOCCOCCOCCOCCNC(=O)CNC(=O)C(CC(=O)O)SC[C@H](N)C(=O)O)C(=O)O.O=C(O)C(F)(F)F.O=C(O)C(F)(F)F (stereo partly drawn) [Example M21, (2R,24S,27R)-27-Amino-2-[({2-[(3-aminopropyl){(1R)-1-[1-benzyl-4-(2,5-difluorophenyl)-1H-pyrrol-2-yl]-2,2-dimethylpropyl}amino]-2-oxoethyl}sulphanyl)methyl]-24-(carboxymethyl)-4,20,23-trioxo-7,10,13,16-tetraoxa-25-thia-3,19,22-triazaoctacosane-1,28-dioic acid/trifluoroacetic acid (1:2)]
- Papp B→A at 2 h [1]: 0.05 ×10⁻⁶ cm/s
- efflux ratio at 2 h ([1]; Caco-2, Papp (B-A) to Papp (A-B)): 1.5
